Data on 15 molecules can be found in publication PMC11304739, “Identification of novel bromodomain inhibitors of Trypanosoma cruzi bromodomain factor 2 (TcBDF2) using a fluorescence polarization-based high-throughput assay” (Antimicrobial Agents and Chemotherapy, 2024).

Experiment [1] relates to Dm28c epimastigotes. The following applies: cited from earlier work.
Experiment [2] relates to TcBDF2. Further details: method as in PMID 27007774, PMID 35482332. Particulars: cited from earlier work.
In experiment [3] the test system is TcBDF3. Further details: method as in PMID 27007774, PMID 35482332. Particulars: cited from earlier work.
Experiment [4] concerns LdBDF5. Further details: method as in PMID 37906637. The following applies: different affinities for first or second BD; cited from earlier work.
Experiment [5] has as its system T. cruzi Dm28c epimastigotes expressing beta-galactosidase. The experiment is described as follows: Beta-galactosidase expressing parasite assay (epimastigotes). Particulars: Trypanosoma cruzi, 72 h. Format: cell-based. How it is done: T. cruzi Dm28c which expresses the Escherichia coli LacZ gene was used ([31][–][33]). Epimastigotes were incubated with the compounds (50, 25, 12.5, 6.25, and 3.125 µM). After 72 hours of treatment, the assays were developed by the addition of Chlorophenol red-β-D-galactopyranoside (100 µM final concentration) and Nonidet P-40 (0.1% final concentration). Plates were incubated for 2 to 4 hours at 37°C. Wells with β-galactosidase activity turned the media from yellow to red, and this was quantitated by absorbance at 595 nm using a Synergy HTX multi-detection microplate reader as reported previously ([31]). Normalized survival percentage was plotted against concentrations on Prism 9.0 GraphPad software. DMSO 50% was used as the 0% survival baseline. Each concentration was assayed in triplicates.
Fig 4 Trypanocidal effect on epimastigotes expressing beta-galactosidase. Epimastigotes were incubated for 72 hours with each compound (named 1 to 6 and indicated on top of each graph) at five concentrations (3.12 to 50 µM). Beta-galactosidase activity was measured, and normalized survival was plotted vs. log concentration. For IC50 calculation of iBET151 and Benznidazole (BZN) (used as positive controls), six concentrations (from 1.56 to 100 µM) were plotted and the curves were fitted using GraphPad Prism 9.0 [non-linear regression: log(inhibitor) vs. response -- Variable slope (four parameters)]. […]

Experiment [6] deals with recombinant TcBD2 (Trypanosoma cruzi, UniProt A0A2V2V5V1). The experiment in a line: Thermal shift / differential scanning fluorimetry (DSF). The class given is binding. The protocol:
Recombinant TcBD2 was buffered in 10 mM HEPES, pH 7.5, and 300 mM NaCl and assayed in a 96-well plate at a final concentration of 5 µM in a 25-µL volume. Compounds were added at a final concentration between 0.1 and 50 µM to calculate dissociation constants. SYPRO Orange was added as a fluorescence probe at a dilution of 1:10,000. Excitation and emission filters for the SYPRO Orange dye were set to 465 and 590 nm, respectively. The temperature was raised with a step of 2°C per minute from 25°C to 96°C, and fluorescence readings were taken at each interval in a real-time Bio-Rad Opus CFX. Data were analyzed as previously described ([22]).
Fig 3 Kd calculation using DSF. Six concentrations of each compound (compounds named 1 to 7 indicated on top of each graph) were used (from 0.1 to 50 µM), and the melting temperatures of TcBD2 with each concentration of compound obtained were used to calculate the Kds. DMSO was used as a control sample. All thermal shift assays were performed at least in triplicate with reproducibility of parameters within ±10%. The change of melting temperature versus the log of the ligand concentration was plotted and fitted as described in the Materials and Methods section.
For orientation: In DSF a fluorescence change marks the thermal transition of the protein.

Experiment [7] addresses BD of TbBDF2. Further details: method as in PMID 29025975. The following applies: ITC; cited from earlier work. In general terms: Isothermal titration calorimetry measures the heat released or taken up as one component is titrated into another.
Experiment [8] deals with second BD of TbBDF5. Further details: method as in PMID 29025975. The following applies: ITC; cited from earlier work.
Experiment [9] deals with TbBDF3. Further details: method as in PMID 29025975. The following applies: cited from earlier work.
Experiment [10] relates to first BD from TbBDF5. Further details: method as in PMID 29025975. Particulars: cited from earlier work.
For experiment [11], the system named is procyclic T. brucei. Further details: method as in PMID 29025975. Particulars: growth of procyclic T. brucei; cited from earlier work.
Experiment [12] has as its system TbBDF2. Further details: method as in PMID 26646171, PMID 35642518. The following applies: cited from earlier work.
The test system of experiment [13] is TbBDF3. Further details: method as in PMID 26646171, PMID 35642518. Particulars: cited from earlier work.
Experiment [14] relates to Toxoplasma tachyzoites infecting HFF cells. Further details: method as in PMID 32119930. Particulars: cited from earlier work.
For experiment [15], the target named is LdBD5.1. Further details: method as in PMID 37906637. The following applies: cited from earlier work.
The test system of experiment [16] is promastigotes from Leishmania mexicana. Further details: method as in PMID 37906637. The following applies: cited from earlier work.
Experiment [17] relates to promastigotes from L. donovani. Further details: method as in PMID 37906637. Particulars: cited from earlier work.
Experiment [18] has as its system asexual form of Plasmodium falciparum. Further details: method as in PMID 29631126. The following applies: cited from earlier work.
Setting [19] is: second round of experiments, six concentrations, read-out: IC50 (Figure S3, Kd calculation using DSF, second round of experiments).
Setting [20] is: thermal shift, compounds 0.1 to 50 µM, 5 µM TcBD2, read-out: Kd ± SD.
Where [21] appears, read: read-out: IC50 against Dm28c epimastigotes.

Like-named read-outs stand apart in the source and are kept apart here.

recombinant TcBD2, sequence (A0A2V2V5V1 entry or part of it): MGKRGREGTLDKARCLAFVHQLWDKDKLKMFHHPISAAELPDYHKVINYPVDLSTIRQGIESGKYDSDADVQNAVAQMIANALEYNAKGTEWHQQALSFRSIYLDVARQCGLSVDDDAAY

What is called IC50 is the concentration that gives 50% inhibition. Regarding `CCOC(=O)Nc1cc(-c2ccc(C)c(NS(C)(=O)=O)c2)nn2c(C)nnc12` [BSP, Bromosporine], the IC50 in experiment [1] (read-out: IC50 against parasites) is > 50 µM. For the same molecule, in experiment [2], the “binding to TcBDF2” value is listed as “bind”. Besides, the “binding to TcBDF3” value in experiment [3] was “bind”. For the same molecule, the “binding to LdBDF5” value in experiment [4] is recorded as “binds”.
As for `O=C(Cn1ccnc1[N+](=O)[O-])NCc1ccccc1` [BZN, Benznidazole], in experiment [5], the IC50 came to 19.8 µM.
Usually Kd stands for a measure of binding affinity in units of concentration. Take `CCn1nnc2c(N3CC[C@@H](N)C3)nc(C)nc21` [Compound 1]: the Kd is 1.89 µM in experiment [6] (setting [19]) and 1.91 ± 0.31 µM in experiment [6] (setting [20]).
For `CCn1nnc2c(N3CC[C@H](N)C3)nc(C)nc21` [Compound 2], in that order: 1.55 µM and 1.33 ± 0.22 µM.
For `Cc1cc(C(=O)NC2CCc3nccn3C2)c2c(C)noc2n1` (stereo not shown) [Compound 3], in that order: 2.14 µM and 2.41 ± 0.32 µM.
For `Cc1cc2c(NC(=O)CC(C)(C)CC(=O)O)cccc2nn1` [Compound 4], in that order: 1.92 µM and 1.58 ± 0.42 µM.
Consider `Cc1cc2c(NS(=O)(=O)c3c(C)noc3C)cccc2nn1` [Compound 5], for which the Kd is 3.36 µM in [6] (setting [19]) and 3.52 ± 0.12 µM in experiment [6] (setting [20]).
Take `Cc1cc2c(NC(=O)c3ccccc3C(=O)O)cccc2nn1` [Compound 6]: the Kd in experiment [6] (setting [19]) is 3.11 µM; in experiment [6] (setting [20]), 3.31 ± 0.26 µM.
For `CC(=O)Nc1nc(C)c(S(=O)(=O)Nc2cccc3nnc(C)cc23)s1` [Compound 7], in that order: 3.15 µM and 2.81 ± 0.31 µM.
With `CCCOc1ccn2c(C(C)=O)cc(-c3ccccc3S(C)(=O)=O)c2c1` [GSK2801], the Kd in experiment [7] is 15 µM; in experiment [8], 83 µM. Besides, the “binding to TbBDF3” value in [9] is listed as “does not bind”. In experiment [10], the “binding to first BD from TbBDF5” value is “does not bind”. In experiment [11], the IC50 was 1.37 µM.
Turning to `CCn1cc(-c2cccc(C(F)(F)F)c2)c2sc(C(=N)NC3CCS(=O)(=O)CC3)cc2c1=O` [I-BRD9], in [4], the “binding to LdBDF5” value was “binds”.
With `Cc1sc2c(c1C)C(c1ccc(Cl)cc1)=N[C@@H](CC(=O)OC(C)(C)C)c1nnc(C)n1-2` [JQ1(+)], the “binding to TbBDF2” value in [12] is on record as “do not bind at all”. In addition, in experiment [13], the “binding to TbBDF3” value is reported as “do not bind at all”. Also, the IC50 in experiment [1] (setting [21]) was 7.14 µM. The “binding to TcBDF2” value in experiment [2] is listed as “does not interact”. The “binding to TcBDF3” value in experiment [3] was “binds”.
In the case of `Cc1nnc2c3ccccc3c(N[C@@H](C)[C@H](c3ccccc3)N(C)C)nn12` [L-Moses], the IC50 in [14] is ~0.6 µM.
`COc1ccc(CCc2nc3cc(-c4c(C)noc4C)ccc3n2C[C@H](C)N2CCOCC2)cc1Cl` [SGC-CBP30]: the Kd in [15] was 0.281 µM. The results for the IC50 in experiment [16], in experiment [17] and in experiment [18] (in vitro) were 7.16 µM, 6.16 µM and 3.2 µM, respectively. For the same molecule, in experiment [18] (calculated using a human HEK 293 cell line), the selectivity index entry is “around 7”. The “binding to LdBDF5” value in [4] was “binds”.
Consider `COc1cc2c(cc1-c1c(C)noc1C)ncc1[nH]c(=O)n([C@H](C)c3ccccn3)c12` [iBET-151], for which the IC50 in [5] was 7.75 µM; in experiment [1] (setting [21]), 6.35 µM. The Kd in [12] is 225 µM; in [13] it was 175 µM. Further, the “binding to TcBDF2” value in experiment [2] is listed as “bind”. Also, in [3], the “binding to TcBDF3” value is recorded as “bind”.
